One assay concerns pTau. The experiment in a line: pTau assay (method not described). Type of assay: cell-based. Conditions: read-out: pTau.
Another assay has as its target GSK3α (Homo sapiens, UniProt P49840). The experiment in a line: biochemical. The following applies: second value of the cell; 250 pM enzyme, 20 uM ATP, 20 hours at room temperature; read-out: GSK3β/α (nM): GSK3α IC50. In outline: (§1)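 Readout: electrophoretic resolution of phosphorylated from unphosphorylated peptide on a LabChip3000. Reactions incubated 20 h at room temperature before termination with 35 mM EDTA. Eleven-concentration curves gave IC50 via non-linear regression.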

The target in the next assay is GSK3β (Homo sapiens, UniProt P49841). Nature of the assay: GSK3β kinase assay (Caliper LabChip3000, fluoresceinated peptide substrate). The class given is biochemical. In outline: as §1
Sequence of GSK3β (P49841 whole entry, species assumed): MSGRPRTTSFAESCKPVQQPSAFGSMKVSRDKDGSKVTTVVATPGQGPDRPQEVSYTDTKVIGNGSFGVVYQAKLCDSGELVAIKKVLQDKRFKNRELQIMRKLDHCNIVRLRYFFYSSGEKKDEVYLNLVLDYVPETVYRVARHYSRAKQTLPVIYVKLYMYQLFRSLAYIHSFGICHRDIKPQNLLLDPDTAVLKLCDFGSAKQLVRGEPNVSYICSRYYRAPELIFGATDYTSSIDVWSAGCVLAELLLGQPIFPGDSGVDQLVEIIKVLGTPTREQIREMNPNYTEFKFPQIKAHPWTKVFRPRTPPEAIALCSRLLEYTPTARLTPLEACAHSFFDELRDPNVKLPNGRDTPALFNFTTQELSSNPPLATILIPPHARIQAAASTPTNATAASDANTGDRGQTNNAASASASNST
[1] abbreviates: first value of the cell, 250 pM enzyme, 20 uM ATP, 20 hours at room temperature, read-out: GSK3β/α (nM): GSK3β IC50.

Our source for the IC50 values is patent US9809573B2, “Substituted pyridine derivatives useful as GSK-3 inhibitors” (priority 2013, dated 2017).

Where two headings read alike, the source gives them in different places.

Sequence of GSK3α (P49840 whole entry, species assumed): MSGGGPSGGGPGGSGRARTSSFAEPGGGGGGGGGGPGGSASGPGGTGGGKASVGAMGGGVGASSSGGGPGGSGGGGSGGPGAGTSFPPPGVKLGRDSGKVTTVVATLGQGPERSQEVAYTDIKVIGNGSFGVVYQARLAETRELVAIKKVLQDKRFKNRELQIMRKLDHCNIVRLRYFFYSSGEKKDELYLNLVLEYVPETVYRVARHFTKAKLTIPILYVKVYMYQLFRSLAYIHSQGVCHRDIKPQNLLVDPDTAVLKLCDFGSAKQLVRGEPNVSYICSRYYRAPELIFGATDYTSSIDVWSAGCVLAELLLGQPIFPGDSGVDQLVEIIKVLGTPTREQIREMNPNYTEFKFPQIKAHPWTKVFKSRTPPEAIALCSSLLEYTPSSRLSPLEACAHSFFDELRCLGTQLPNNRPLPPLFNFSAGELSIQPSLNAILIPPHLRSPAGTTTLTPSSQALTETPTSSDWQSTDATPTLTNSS

`N#Cc1ccc(-c2cncc(NC(=O)c3ccnc(NC(=O)C4CC4)c3)c2)cc1` [Example 115, N-(5-(4-cyanophenyl)pyridin-3-yl)-2-(cyclopropanecarboxamido)isonicotinamide]: the IC50 is 780 nM with pTau, 4.3 nM on GSK3α and 4.1 nM at GSK3β (setting [1]).
For the compound `O=C(Nc1cncc(-c2ccccc2Cl)c1)c1ccnc(NC(=O)C2CCC(F)(F)C2)c1` (stereo not drawn) [Example 237, N-(5-(2-chlorophenyl)pyridin-3-yl)-2-(3,3-difluorocyclopentanecarboxamido)isonicotinamide], the IC50 amounted to 94 nM in the assay on pTau, 0.78 nM at GSK3α and 4.1 nM against GSK3β.
Turning to `O=C(Nc1cncc(-c2cncc(Cl)c2)c1)c1ccnc(NC(=O)C2CC2)c1` [Example 160], the results for the IC50 in the assay with pTau, at GSK3α and against GSK3β were 150 nM, 1.6 nM and 3.9 nM, respectively.
As for `CC(C)C(=O)Nc1cc(C(=O)Nc2cncc(-c3cccc(F)c3F)c2)ccn1` [Example 194, N-(5-(2,3-difluorophenyl)pyridin-3-yl)-2-isobutyramidoisonicotinamide], the IC50 in the assay with pTau stood at 140 nM; at GSK3α, 1.4 nM; at GSK3β (setting [1]), 3.8 nM.
The like results for `O=C(Nc1cncc(-c2cccc(F)n2)c1)c1ccnc(NC(=O)C2CC2)c1` [Example 165, 2-(cyclopropanecarboxamido)-N-(6-fluoro-[2,3′-bipyridin]-5′-yl)isonicotinamide] were, in that order, 125 nM, 1.3 nM and 3.8 nM.
For `O=C(Nc1cnccc1N1CCC(F)(F)C1)c1ccnc(NC(=O)C2CC2)c1` [Example 83, 2-(Cyclopropanecarboxamido)-N-(4-(3,3-difluoropyrrolidin-1-yl)pyridin-3-yl)isonicotinamide] the same measures were 4400 nM, 49 nM and 71 nM.
For `CC(C)C(=O)Nc1cc(C(=O)Nc2cncc(-c3ccccc3F)n2)ccn1` [Example 207, N-(6-(2-fluorophenyl)pyrazin-2-yl)-2-isobutyramidoisonicotinamide] the same measures were 160 nM, 1.1 nM and 2.5 nM.
On to `Cc1cc(NC(=O)c2ccnc(NC(=O)C3CC3)c2)cnc1F` [Example 8, 2-(Cyclopropanecarboxamido)-N-(6-fluoro-5-methylpyridin-3-yl)isonicotinamide], for which the IC50 was determined as 1800 nM in the assay on pTau, 24 nM on GSK3α and 48 nM on GSK3β (setting [1]).
The like results for `CC1CC1C(=O)Nc1cc(C(=O)Nc2cnccc2-c2ccccc2)ccn1` (stereo not drawn) [Example 100, 2-(2-Methylcyclopropanecarboxamido)-N-(4-phenylpyridin-3-yl)isonicotinamide] were, in that order, 350 nM, 7.5 nM and 26 nM.
Take `C[C@@H]1COCCN1c1ccncc1NC(=O)c1ccnc(NC(=O)C2CC2)c1` [Example 52, (R)-2-(cyclopropanecarboxamido)-N-(4-(3-methylmorpholino)pyridin-3-yl)isonicotinamide]: the IC50 came out at 12 nM in the assay with pTau, 0.21 nM on GSK3α and 0.49 nM on GSK3β.
With `O=C(Nc1nc2cnccc2s1)c1ccnc(NC(=O)C2CC2)c1` [Example 182, 2-(cyclopropanecarboxamido)-N-(thiazolo[4,5-c]pyridin-2-yl)isonicotinamide], the IC50 is no less than 10000 nM with pTau, 470 nM on GSK3α and 1300 nM at GSK3β (setting [1]).
As for `CC(C)C(=O)Nc1cc(C(=O)Nc2cncc(-c3ccccc3F)c2)ccn1` [Example 193, N-(5-(2-fluorophenyl)pyridin-3-yl)-2-isobutyramidoisonicotinamide], the IC50 in the assay with pTau came to 85 nM; at GSK3α it was 2.2 nM; at GSK3β, 5.6 nM.
For the compound `CC(C)C(=O)Nc1cc(C(=O)Nc2cnccc2C(=O)c2ccccc2)ccn1` [Example 196, N-(4-benzoylpyridin-3-yl)-2-isobutyramidoisonicotinamide], the IC50 was 520 nM in the assay with pTau, 5.9 nM on GSK3α and 13 nM on GSK3β (setting [1]).
